Measurements: US20180360037A1, “STEREOISOMER OF BROMADIOLONE, COMPOSITION AND RODENTICIDE BAIT COMPRISING SAME, AND METHOD FOR CONTROLLING TARGET RODENT PESTS” (priority 2015, published 2018)
Like-named read-outs stand apart in the source and are kept apart here.

Assays:
[1] = format: in vivo, rat; details: for concentration of each enantiomer in rat liver: mixture of diastereoisomers, about 13 mg/kg per os on D0, from D+3, FIG. 3
Protocol: Separation of the configurational stereoisomers of bromadiolone is performed by high-pressure liquid chromatography (HPLC) on a LUX® Cellulose-1 chiral column (Phenomenex, Le Pecq, France) containing a chiral stationary phase constituted of particles of cellulose tris(3,5-dimethylphenyl carbamate), said particles having a mean size of 3 μm and having a mean pore size of 1000 Å. A mixture formed from acetonitrile (A) and water comprising 0.1% by volume of formic acid (B), with an A/B volume ratio of 80/20 and with a flow rate of 0.25 mL/minute in the chromatography column, is used as mobile phase. The concentration of the composition to be analysed is 1 μg of bromadiolone per millilitre of acetonitrile and the volume injected onto the column is 1 μL. Detection is performed by tandem mass spectrometry (MS/MS) in negative electrospray ionization (ESI) mode. The temperature of the nebulizer gas is 350° C. and its flow rate is 8 L/minute. The pressure of the nebulizer gas is brought to 2700 hPa. In particular, the MRM (“Multiple Reaction Monitoring”) transitions m/z 525.1→250.1 and m/z 525.1→181, corresponding to the bromadiolone signal, are detected.
About 0.525 g (±0.025 g) of rat liver is weighed out accurately and placed in a 50 mL polypropylene tube. 10 mL of acetone are added and the suspension is homogenized using an Ultra-Turrax® homogenizer/disperser for a time of about 30 seconds. The homogenizer/disperser shaft is rinsed with hot water and then twice with 20 mL of acetone in a polypropylene tube. The homogenate is centrifuged for 5 minutes at a centrifugation speed of 3000 rpm (revolutions per minute). The supernatant is collected and transferred into a test tube. The sample is subjected to evaporation under a stream of nitrogen (N2) at a temperature of 40° C. so as to form a dry extract.
1 mL of acetonitrile is added to the tube containing the dry extract so as to dissolve it. The acetonitrile solution is washed twice successively with 1 mL of hexane. The lipid-free extract is dried under a stream of nitrogen (N2) at a temperature of 40° C. and is then taken up in 0.5 mL of methanol and dissolved by vortex stirring. 0.5 mL of ultra-pure (Milli-Q) water is then added. The sample is vortex-homogenized.
1 mL of dichloromethane (CH2Cl2), then 1 mL of methanol (CH3OH), then 1 mL of ultra-pure (Milli-Q) water are passed through an Oasis HLB 1 cc cartridge (WAT094225, Waters). The lipid-free liver extract (1 mL MeOH/Milli-Q H2O) containing bromadiolone is then loaded onto the top of the preconditioned cartridge. The liver extract penetrates through the cartridge by gravity on contact with the solid phase of the cartridge. 1 mL of washing solution formed from methanol (CH3OH) and ultra-pure water (H2O) in a 90/10 volume proportion is loaded onto the top of the cartridge. The cartridge is dried by suction under vacuum connected to the bottom of the cartridge. 1 mL of eluting solution formed from dichloromethane (CH2Cl2) and methanol (CH3OH) in a 90/10 volume proportion is then loaded onto the top of the cartridge and an eluate comprising bromadiolone is collected at the bottom of the cartridge. The solvent of the eluate is evaporated off under a stream of nitrogen (N2) at a temperature of 40° C. The sample is taken up in 0.5 mL of acetonitrile and the acetonitrile solution containing bromadiolone is filtered through a 0.2 μm filter. […]

[2] = test system: male laboratory rats (OFA, Sprague-Dawley 200 g); assay: Anticoagulant power of each configurational stereoisomer of bromadiolone (coagulation time, Quick time, of plasma of tube-fed rats); format: in vivo, rat; details: for anticoagulant effect (coagulation time, Quick time): 1.5 mg of enantiomer per kg rat by tube feeding on D0, up to D3, FIG. 4
Protocol: The following are administered to male laboratory rats (OFA, Sprague-Dawley 200 g) by tube feeding on D0: a composition comprising enantiomer E1 of said diastereoisomer D12 in a proportion of 1.5 mg of said enantiomer E1 per kilogram of rat; or a composition comprising enantiomer E2 of said diastereoisomer D1,2 in a proportion of 1.5 mg of said enantiomer E2 per kilogram of rat; or a composition comprising enantiomer E3 of said diastereoisomer D3,4 in a proportion of 1.5 mg of said enantiomer E3 per kilogram of rat; or a composition comprising enantiomer E4 of said diastereoisomer D3,4 in a proportion of 1.5 mg of said enantiomer E4 per kilogram of rat.
The rats receive vitamin K1 daily in a proportion of 0.1 unit of vitamin per 200 g of rat so as to keep them alive for 7 days or 14 days. However, the administration of vitamin K1 is stopped 48 hours before the rats are euthanized so as to allow evaluation of the Quick time without interference with the supplementation by tube feeding.
On these rats, blood is collected on D1, D3, D7 and D14 and measurement of the coagulation time (Quick time, expressed in seconds) of the plasma is performed using the “Neoplastine CI Determination of Prothrombin Time” kit (Diagnostica Stago, Asnière, France) by measurement on a Thrombotimer Option 2 Plus machine (Behnk Electronik, Norderstedt, Germany).

[3] = summary statement of the inventors

## O=c1oc2ccccc2c(O)c1C(CC(O)c1ccc(-c2ccc(Br)cc2)cc1)c1ccccc1 (single isomer, unassigned) [enantiomer E2, 3-[3-(4′-bromo[1,1′-biphenyl]-4-yl)-3-hydroxy-1-phenylpropyl]-4-hydroxy-2H-1-benzopyran-2-one]
[1]; listed as E2
  concentration of each enantiomer in rat liver: only enantiomer E1 remains in the rat liver

## O=c1oc2ccccc2c(O)c1C(CC(O)c1ccc(-c2ccc(Br)cc2)cc1)c1ccccc1 (single isomer, unassigned) [enantiomer E4, 3-[3-(4′-bromo[1,1′-biphenyl]-4-yl)-3-hydroxy-1-phenylpropyl]-4-hydroxy-2H-1-benzopyran-2-one]
[1]; listed as E4
  concentration of each enantiomer in rat liver: only enantiomer E1 remains in the rat liver
[1]; [3]
  persistence in the liver of target rodent pests: sufficient to be rodenticidal
[2]; listed as E4
  anticoagulant effect (coagulation time, Quick time): sufficient to maintain an anticoagulant effect at least up to D3
[2]; [3]
  anticoagulant activity compared with enantiomer E3: higher anticoagulant activity than the anticoagulant activity of said enantiomer E3

## O=c1oc2ccccc2c(O)c1C(CC(O)c1ccc(-c2ccc(Br)cc2)cc1)c1ccccc1 (single isomer, unassigned) [enantiomer E1, 3-[3-(4′-bromo[1,1′-biphenyl]-4-yl)-3-hydroxy-1-phenylpropyl]-4-hydroxy-2H-1-benzopyran-2-one]
[1]; listed as E1
  concentration of each enantiomer in rat liver: remains in the rat liver

## O=c1oc2ccccc2c(O)c1C(CC(O)c1ccc(-c2ccc(Br)cc2)cc1)c1ccccc1 (single isomer, unassigned) [enantiomer E3, 3-[3-(4′-bromo[1,1′-biphenyl]-4-yl)-3-hydroxy-1-phenylpropyl]-4-hydroxy-2H-1-benzopyran-2-one]
[1]; listed as E3
  concentration of each enantiomer in rat liver: only enantiomer E1 remains in the rat liver
[2]; listed as E3
  anticoagulant effect (coagulation time, Quick time): contrary to the ingestion of 1.5 mg of said enantiomer E3
